In patent US8778974B2, “Trisubstituted 1,2,4 triazoles” (Janssen Pharmaceutica NV, priority 2008, dated 2014):

Experiments:
[1] = molecular target: T1, hα7-wt nAChR-expressing GH4Cl cells (Homo sapiens, UniProt P36544); assay: Patch-clamp current recording (whole-cell), potentiation of choline 1 mM response, PAM type; type: cell-based; set-up: key to Pam type: Type 0 compounds minimally enhance the effect size of the current elicited by 1 mM choline.; Type 1 compounds enhance the effect size of the current elicited by 1 mM choline but minimally alter the kinetics of the receptor.; Type 2 compounds enhance the effect size of the current elicited by 1 mM choline while reducing the rate and/or the extent of desensitization.; Type 3 compounds enhance the effect size of the current elicited by 1 mM choline. When tested at higher concentrations up to 10 μM they completely inhibit desensitization, in particular a 1 mM choline application of 250 milliseconds.; Type 4 compounds allow for an initial desensitization of the receptor followed by a re-opening of the receptor during agonist application; conditions: for EC50: according to Ex. D.2, "<5" = no top plateau reached at maximal concentration, read-out: Potency (pEC50) (converted); for Pam type: patch-clamp current recording, 1 mM choline
T1 construct: expressed in transfected cells
T1 sequence (P36544 23-502): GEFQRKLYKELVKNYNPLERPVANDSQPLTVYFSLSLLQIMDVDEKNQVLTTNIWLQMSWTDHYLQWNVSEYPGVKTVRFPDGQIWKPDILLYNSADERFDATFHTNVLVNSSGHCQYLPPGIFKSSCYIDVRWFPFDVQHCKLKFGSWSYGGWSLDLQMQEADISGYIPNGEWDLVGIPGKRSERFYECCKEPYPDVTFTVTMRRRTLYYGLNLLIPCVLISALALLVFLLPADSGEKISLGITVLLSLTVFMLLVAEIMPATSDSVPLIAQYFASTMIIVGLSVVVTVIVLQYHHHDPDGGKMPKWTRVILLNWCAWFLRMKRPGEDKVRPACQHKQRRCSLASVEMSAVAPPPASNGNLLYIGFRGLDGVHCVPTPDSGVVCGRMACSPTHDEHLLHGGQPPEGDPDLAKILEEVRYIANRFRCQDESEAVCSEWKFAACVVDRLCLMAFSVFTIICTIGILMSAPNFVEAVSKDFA
Summary of the method: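 Whole-cell voltage clamp at −70 mV of GH4Cl cells expressing human α7 nAChR, with PAM and 1 mM choline co-applied by rapid-switching (<100 ms) microfluidics. External solution HEPES-buffered, 1 mM Ca, pH 7.3; CsCl-based internal. Compounds classified into PAM types by effect on current amplitude and desensitization kinetics.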

[2] = molecular target: T2, hα7-wt nAChR-expressing cells (Homo sapiens, UniProt P36544); assay: Ca2+ flux imaging (FDSS) (Protocol B), PAM activity with choline 100 μM; type: cell-based; conditions: according to Ex. D.1b; read-out: % Efficacy
T2 construct: expressed in transfected cells; host or cells: hα7-wt nAChR-expressing cells
T2 sequence (P36544 23-502): as above
Method: Ca^2+ Flux Imaging (FDSS) (Protocol B)
• a) Assay buffer • Hanks buffered saline solution (HBSS, Invitrogen, Belgium), supplemented with 10 mM HEPES (Invitrogen, Belgium), CaCl2 to a final concentration of 5 mM, 0.1% Bovine serum albumin (Sigma-Aldrich NV, Belgium). • b) Calcium-sensitive dye—Fluo-4AM • Fluo-4AM (Molecular Probes, USA) was dissolved in DMSO containing 10% Pluronic acid (Molecular Probes, USA) to give a stock solution which was diluted in assay buffer supplemented with 5 mM probenicid (Sigma, Al-drich NV, Belgium) to give a final concentration of 2 μM. • c) 384-well plates • Black 384 well plate black/clear plates, PDL pre-coated (Corning, Incorporated, USA) • d) Calcium flux measurement • A Functional drug screening system (FDSS, Hamamatsu) was used to measure intracellular free-calcium flux signals. Method
Monolayers of hα7-wt nAChR-expressing cells were grown in multi-well plates, in particular black-sided, transparent bottomed 384 well plates coated with poly-D-lysine for 24 hours prior to loading with a fluorescent calcium indicator, in a particular embodiment loading with fluo-4AM for up to 120 minutes.
PAM activity was detected in real time by applying the compounds to be tested to the loaded cells along with a α7 nicotinic receptor agonist during constant monitoring of cellular fluorescence in a FDSS. Compounds giving peak fluorescent responses greater than the response due to agonist alone, were considered to be α7 nAChR PAM's. In a particular embodiment, the α7 nicotinic receptor agonist was choline, a more particular embodiment choline applied at a sub-maximal concentration of 100 μM. In a further setting of the present invention the compounds to be tested were applied prior to the α7 nicotinic receptor agonist, in a particular embodiment up to 10 minutes prior to the agonist.
A control response to choline was calculated on each plate from the difference in peak in fluorescence in wells receiving either choline or assay buffer alone. Compounds of the present invention were tested at a concentration range from 0.01 μM to 30 μM. Compounds were considered to have an interesting activity when they potentiated the choline signal at least with 500% when tested at a concentration of 30 μM (the efficacy of 100 μM choline was defined as 100% in the absence of a PAM). The compounds also have a potentiating effect on the response to choline when measured by whole-cell patch clamp electrophysiology in GH4Cl cells stably over-expressing the human wild-type α7 receptor.

SMILES	EC50 [1]	Pam type [1]	Emax [2]	melting point
Cc1cc(-n2nc(Nc3ccc(F)c(F)c3F)nc2CC(=O)NCC2CC2)cc(C)n1 [E214]	0.132 µM	2	730%	213.7 °C
CCNC(=O)Cc1nc(Nc2cc(F)c(F)c(F)c2)nn1-c1cc(C)nc(C)c1 [E215]	0.214 µM	2	658%	296.1 °C
CNC(=O)Cc1nc(Nc2cc(Cl)cc(OC)c2)nn1-c1cc(C)nc(C)c1 [E216]	0.603 µM	4	576%	246.2 °C
CCNC(=O)Cc1nc(Nc2cc(Cl)cc(OC)c2)nn1-c1cc(C)nc(C)c1 [E219]	0.269 µM	4	702%	254 °C
COc1cc(Cl)cc(Nc2nc(CC(=O)NC3CC3)n(-c3cc(C)nc(C)c3)n2)c1 [E221]	0.209 µM	4	620%	264.4 °C
COc1cc(Cl)cc(Nc2nc(CC(=O)NC3CCC3)n(-c3cc(C)nc(C)c3)n2)c1 [E222]	0.0832 µM	1	440%	257.8 °C
CNC(=O)Cc1nc(Nc2ccc(F)c(C(F)(F)F)c2)nn1-c1cc(C)nc(C)c1 [E223]	0.316 µM		603%	264.2 °C
CCNC(=O)Cc1nc(Nc2ccc(F)c(C(F)(F)F)c2)nn1-c1cc(C)nc(C)c1 [E224]	0.204 µM	1	600%	256.2 °C
Cc1cc(-n2nc(Nc3ccc(F)c(C(F)(F)F)c3)nc2CC(=O)NC2CCC2)cc(C)n1 [E225]	0.1 µM	0	660%	248.8 °C
CNC(=O)Cc1nc(Nc2ccc(OC)c(C(F)(F)F)c2)nn1-c1cc(C)nc(C)c1 [E227]	0.457 µM	4	654%	263 °C
COc1ccc(Nc2nc(CC(=O)NC3CC3)n(-c3cc(C)nc(C)c3)n2)cc1C(F)(F)F [E229]	0.135 µM	4	680%	265.7 °C
Cc1cc(-n2nc(Nc3ccc(F)c(Cl)c3)nc2CC(=O)NC2CC2)cc(C)n1 [E230]	0.141 µM		417%	287.4 °C
Cc1cc(-n2nc(Nc3ccc(F)c(Cl)c3)nc2CC(=O)NC2CCC2)cc(C)n1 [E231]	0.0575 µM		606%	273.9 °C
CNC(=O)Cc1nc(Nc2cc(F)cc(F)c2)nn1-c1cc(C)nc(C)c1 [E232]	0.871 µM		289%	282.1 °C
Cc1cc(-n2nc(Nc3ccc(F)c(F)c3)nc2CCC(=O)N(C)C)cc(C)n1 [E234, 3-[(3,4-difluorophenyl)amino]-1-(2,6-dimethyl-4-pyridinyl)-N,N-dimethyl-1H-1,2,4-triazole-5-propanamide]	0.0617 µM		459%	200.2 °C
Cc1cc(-n2nc(Nc3ccc4c(c3)OC(F)(F)O4)nc2CCC(=O)N(C)C)cc(C)n1 [E235, 3-[(2,2-difluoro-1,3-benzodioxol-5-yl)amino]-1-(2,6-dimethyl-4-pyridinyl)-N,N-dimethyl-1H-1,2,4-triazole-5-propanamide]	0.0288 µM		419%	178 °C
COc1ccc(Nc2nc(CC(=O)NC3CCC3)n(-c3cc(C)nc(C)c3)n2)cc1C(F)(F)F [E236]	0.12 µM		391%	268.7 °C

SMILES	EC50 [1]	Pam type [1]	Emax [2]	melting point
CCNC(=O)Cc1nc(Nc2cc(F)cc(F)c2)nn1-c1cc(C)nc(C)c1 [E237]	0.407 µM		522%	289 °C
Cc1cc(-n2nc(Nc3cc(F)cc(F)c3)nc2CC(=O)NC2CC2)cc(C)n1 [E238]	0.575 µM		382%	289.2 °C
Cc1cc(-n2nc(Nc3cc(F)cc(F)c3)nc2CC(=O)NC2CCC2)cc(C)n1 [E239]	0.126 µM		372%	286.7 °C
CNC(=O)Cc1nc(Nc2cc(F)c(F)c(F)c2)nn1-c1cc(C)nc(C)c1 [E240]	0.49 µM		628%	297.4 °C
Cc1cc(-n2nc(Nc3cc(F)c(F)c(F)c3)nc2CC(=O)NC2CC2)cc(C)n1 [E241]	0.138 µM		653%	295.7 °C
Cc1cc(-n2nc(Nc3cc(F)c(F)c(F)c3)nc2CC(=O)NC2CCC2)cc(C)n1 [E242]	0.0955 µM		676%	291.9 °C
CNC(=O)Cc1nc(Nc2cc(OC)cc(C(F)(F)F)c2)nn1-c1cc(C)nc(C)c1 [E243]	0.204 µM		802%	284.6 °C
COc1cc(Nc2nc(CC(=O)NC3CCC3)n(-c3cc(C)nc(C)c3)n2)cc(C(F)(F)F)c1 [E244]	0.0316 µM		701%	278.4 °C
CNC(=O)Cc1nc(Nc2cc(F)cc(Cl)c2)nn1-c1cc(C)nc(C)c1 [E245]	0.398 µM		614%	280.7 °C
CCNC(=O)Cc1nc(Nc2cc(F)cc(Cl)c2)nn1-c1cc(C)nc(C)c1 [E246]	0.275 µM		494%	290.2 °C
Cc1cc(-n2nc(Nc3cc(F)cc(Cl)c3)nc2CC(=O)NC2CC2)cc(C)n1 [E247]	0.214 µM		663%	289.3 °C
Cc1cc(-n2nc(Nc3cc(F)cc(Cl)c3)nc2CC(=O)NC2CCC2)cc(C)n1 [E248]	0.107 µM		421%	287 °C
CCNC(=O)Cc1nc(Nc2ccc(F)c(Cl)c2)nn1-c1cc(C)nc(C)c1 [E250]	0.105 µM		546%	283.2 °C
CNC(=O)Cc1nc(Nc2cc(F)cc(C(F)(F)F)c2)nn1-c1cc(C)nc(C)c1 [E251]	0.263 µM		658%	286.2 °C
CCNC(=O)Cc1nc(Nc2cc(F)cc(C(F)(F)F)c2)nn1-c1cc(C)nc(C)c1 [E252]	0.195 µM		930%	284.5 °C
Cc1cc(-n2nc(Nc3cc(F)cc(C(F)(F)F)c3)nc2CC(=O)NC2CC2)cc(C)n1 [E253]	0.0912 µM		950%	286.3 °C
Cc1cc(-n2nc(Nc3cc(F)cc(C(F)(F)F)c3)nc2CC(=O)NC2CCC2)cc(C)n1 [E254]	0.0759 µM		662%	291.8 °C
